Here are results for 13 molecules from patent US20250215030A1, “STAT MODULATORS AND USES THEREOF” (Recludix Pharma, Inc., priority 2022, published 2025).

Experiment [1] concerns the target T1, pSTAT6 (pY641-STAT6) (Homo sapiens, UniProt P42226).
T1 construct: host or cells: cryopreserved PBMC
T1 sequence (P42226 1-847): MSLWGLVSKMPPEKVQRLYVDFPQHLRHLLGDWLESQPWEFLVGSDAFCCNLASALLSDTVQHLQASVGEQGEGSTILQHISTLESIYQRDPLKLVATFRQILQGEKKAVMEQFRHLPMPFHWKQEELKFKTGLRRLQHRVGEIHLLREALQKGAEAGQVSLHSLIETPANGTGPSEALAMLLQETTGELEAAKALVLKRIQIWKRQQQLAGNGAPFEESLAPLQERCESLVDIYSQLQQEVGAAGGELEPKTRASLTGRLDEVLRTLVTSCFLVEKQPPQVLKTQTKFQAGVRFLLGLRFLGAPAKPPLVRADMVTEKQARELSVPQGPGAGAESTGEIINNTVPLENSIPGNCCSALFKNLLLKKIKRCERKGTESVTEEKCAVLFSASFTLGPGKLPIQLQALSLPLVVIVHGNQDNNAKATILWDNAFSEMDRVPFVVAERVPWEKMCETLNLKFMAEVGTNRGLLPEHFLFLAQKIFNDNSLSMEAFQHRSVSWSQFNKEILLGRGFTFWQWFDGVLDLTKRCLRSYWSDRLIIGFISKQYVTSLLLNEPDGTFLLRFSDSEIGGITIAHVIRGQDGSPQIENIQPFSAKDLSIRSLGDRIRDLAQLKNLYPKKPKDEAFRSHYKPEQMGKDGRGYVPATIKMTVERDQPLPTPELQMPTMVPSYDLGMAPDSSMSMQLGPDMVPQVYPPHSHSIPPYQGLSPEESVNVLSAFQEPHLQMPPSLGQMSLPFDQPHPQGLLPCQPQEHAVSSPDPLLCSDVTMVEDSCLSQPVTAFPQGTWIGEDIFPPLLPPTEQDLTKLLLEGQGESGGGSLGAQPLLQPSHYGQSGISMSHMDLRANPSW
As to the kind of experiment: MSD-pSTAT-PBMC Assay (pSTAT6, IL-4 stimulated). The class given is cell-based. The conditions noted are these: compound 3 hrs, then 1 ng/mL IL-4 for 10 min. A digest of the protocol: (§1)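 Phospho-STAT levels captured on anti-STAT3 or anti-STAT6 plates and detected with anti-pY705 or anti-pY641 antibodies (MSD read-out). Cryopreserved human PBMCs received compound for 3 h before a 10 min pulse of IL-6 (10 ng/mL, STAT3) or IL-4 (1 ng/mL, STAT6). IC50 fitted after unstimulated-background subtraction and DMSO normalization.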

Experiment [2] addresses T2, pSTAT3 (pY705-STAT3) (Homo sapiens, UniProt P40763).
T2 construct: host or cells: cryopreserved PBMC
As to the kind of experiment: MSD-pSTAT-PBMC Assay (pSTAT3, IL-6 stimulated). In kind it is cell-based. The conditions noted are these: PBMC, compound 3 hrs, then 10 ng/mL IL-6 for 10 min; MSD pY705-STAT3; read-out: pSTAT3. A digest of the protocol: as §1

Each structure is given as a SMILES string. pIC50: −log10 of the molar value.

T2 sequence (P40763 whole entry): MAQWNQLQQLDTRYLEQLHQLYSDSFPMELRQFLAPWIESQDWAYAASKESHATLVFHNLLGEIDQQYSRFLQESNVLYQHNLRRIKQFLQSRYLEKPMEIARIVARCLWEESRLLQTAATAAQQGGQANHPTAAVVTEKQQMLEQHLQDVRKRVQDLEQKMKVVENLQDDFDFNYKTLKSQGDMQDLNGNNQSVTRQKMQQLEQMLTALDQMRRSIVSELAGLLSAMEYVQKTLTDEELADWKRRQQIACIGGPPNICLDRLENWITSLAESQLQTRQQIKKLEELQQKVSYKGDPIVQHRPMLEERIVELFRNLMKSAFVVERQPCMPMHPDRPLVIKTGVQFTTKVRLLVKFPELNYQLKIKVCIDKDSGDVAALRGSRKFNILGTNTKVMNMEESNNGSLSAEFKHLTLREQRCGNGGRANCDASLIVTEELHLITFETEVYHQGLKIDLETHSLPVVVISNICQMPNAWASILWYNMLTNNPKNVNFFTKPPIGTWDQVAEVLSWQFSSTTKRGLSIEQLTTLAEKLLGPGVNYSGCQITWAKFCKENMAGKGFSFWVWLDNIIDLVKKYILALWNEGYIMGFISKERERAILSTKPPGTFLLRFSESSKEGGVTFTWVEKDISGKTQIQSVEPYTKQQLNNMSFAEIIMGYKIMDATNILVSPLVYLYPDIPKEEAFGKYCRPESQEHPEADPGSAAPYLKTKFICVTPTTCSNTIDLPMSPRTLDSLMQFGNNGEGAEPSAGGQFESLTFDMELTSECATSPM

Turning to `CC(C)CC(=O)SCCOP(=O)(Oc1ccccc1)C(F)(F)c1ccc2sc(C(=O)N[C@H]3C[C@H]4C[C@H]4C[C@H]4CC[C@@H](C(=O)N5CC(n6ccnc6)C5)N4C3=O)cc2c1` (stereo partly drawn) [Compound 196, S-(2-((((2-(((3S,6S,7aR, 8aS,9aR)-3-(3-(1H-imidazol-1-yl)azetidine-1-carbonyl)-5-oxodecahydro-1H-cyclopropa[d]pyrrolo[1,2-a]azocin-6-yl)carbamoyl)benzo[b]thiophen-5-yl)difluoromethyl) (phenoxy)phosphoryl)oxy)ethyl) 3-methylbutane thioate], the pIC50 in experiment [1] is less than 5.52; in experiment [2], greater than 7.00.
On to `CCCC(=O)SCCOP(=O)(Oc1ccccc1)C(F)(F)c1ccc2sc(C(=O)N[C@H]3C[C@@H]4C[C@@H]4C[C@H]4CC[C@@H](C(=O)N5CC(n6ccnc6)C5)N4C3=O)cc2c1` (stereo partly drawn) [Compound 198, S-(2-((((2-(((3S,6S,7aS, 8aR,9aR)-3-(3-(1H-imidazol-1-yl)azetidine-1-carbonyl)-5-oxodecahydro-1H-cyclopropa[d]pyrrolo[1,2-a]azocin-6-yl)carbamoyl)benzo[b]thiophen-5-yl)difluoromethyl) (phenoxy)phosphoryl)oxy)ethyl) butanethioate], for which the pIC50 in experiment [1] was 5.52 to 6.00; in experiment [2] it was greater than 7.00.
Turning to `COC1(c2nccn2C)CN(C(=O)[C@@H]2CC[C@@H]3C[C@@H]4C[C@@H]4C[C@H](NC(=O)c4cc5cc(C(F)(F)P(=O)(OCCSC(=O)C(C)(C)C)OCCSC(=O)C(C)(C)C)ccc5s4)C(=O)N32)C1` [Compound 202, S,S′-((((difluoro(2-(((3S,6S,7aR, 8aS,9aR)-3-(3-methoxy-3-(1-methyl-1H-imidazol-2-yl)azetidine-1-carbonyl)-5-oxodecahydro-1H-cyclopropa[d]pyrrolo[1,2-a]azocin-6-yl)carbamoyl)benzo[b]thiophen-5-yl)methyl)phosphoryl)bis(oxy))bis(ethane-2,1-diyl)) bis(2,2-dimethyl-propanethioate)], the pIC50 in experiment [1] is less than 5.52; in experiment [2] it was greater than 7.00.
On to `CC(C)(C)C(=O)OCOP(=O)(OCOC(=O)C(C)(C)C)C(F)(F)c1ccc2sc(C(=O)N[C@H]3C[C@H]4C[C@H]4C[C@H]4CC[C@@H](C(=O)N5CC(c6c[nH]cn6)C5)N4C3=O)cc2c1` [Compound 203, ((((2-(((3S,6S,7aR, 8aS,9aR)-3-(3-(1H-imidazol-4-yl)azetidine-1-carbonyl)-5-oxodecahydro-1H-cyclopropa [d]pyrrolo[1,2-a]azocin-6-yl)carbamoyl)benzo[b]thiophen-5-yl)difluoromethyl)phosphoryl)bis(oxy)) bis(methylene) bis(2,2-dimethyl-propanoate)], for which the pIC50 was 6.00 to 7.00 in experiment [1] and greater than 7.00 in experiment [2].
Regarding `CC(C)(C)C(=O)OCOP(=O)(OCOC(=O)C(C)(C)C)C(F)(F)c1ccc2sc(C(=O)N[C@H]3C[C@@H]4C[C@@H]4C[C@H]4CC[C@@H](C(=O)N5CC(N6CCOCC6)C5)N4C3=O)cc2c1` [Compound 204, (((difluoro(2-(((3S,6S,7aS, 8aR,9aR)-3-(3-morpholino-azetidine-1-carbonyl)-5-oxodecahydro-1H-cyclopropa[d]pyrrolo[1,2-a]azocin-6-yl)carbamoyl)benzo[b]thiophen-5-yl)methyl)phosphoryl)bis(oxy)) bis(methylene) bis(2,2-dimethyl-propanoate)], the pIC50 in experiment [1] is 6.00 to 7.00; in experiment [2] it was greater than 7.00.
As to `CC(C)(C)C(=O)OCOP(=O)(OCOC(=O)C(C)(C)C)C(F)(F)c1ccc2sc(C(=O)N[C@H]3C[C@@H]4C[C@@H]4C[C@H]4CC[C@@H](C(=O)N5CC(C6CCOCC6)C5)N4C3=O)cc2c1` [Compound 205, (((difluoro(2-(((3S,6S,7aS, 8aR,9aR)-5-oxo-3-(3-(tetrahydro-2H-pyran-4-yl)azetidine-1-carbonyl)decahydro-1H-cyclopropa[d]pyrrolo[1,2-a]azocin-6-yl)carbamoyl)benzo[b]thiophen-5-yl)methyl)phosphoryl)bis(oxy)) bis(methylene) bis(2,2-dimethyl-propanoate)], the figures for the pIC50 in experiment [1] and in experiment [2] were 6.00 to 7.00 and greater than 7.00, respectively.
The matching figures for `CC(C)(C)C(=O)OCOP(=O)(OCOC(=O)C(C)(C)C)C(F)(F)c1ccc2sc(C(=O)N[C@H]3C[C@@H]4C[C@@H]4C[C@H]4CC[C@@H](C(=O)N5CC(c6ccccn6)C5)N4C3=O)cc2c1` [Compound 206, (((difluoro(2-(((3S,6S,7aS, 8aR,9aR)-5-oxo-3-(3-(pyridin-2-yl)azetidine-1-carbonyl)decahydro-1H-cyclopropa[d]pyrrolo[1,2-a]azocin-6-yl)carbamoyl)benzo[b]thiophen-5-yl)methyl)phosphoryl)bis(oxy)) bis(methylene) bis(2,2-dimethyl-propanoate)]: 6.00 to 7.00 and greater than 7.00.
Turning to `CC(C)(C)C(=O)OCOP(=O)(OCOC(=O)C(C)(C)C)C(F)(F)c1ccc2sc(C(=O)N[C@H]3C[C@@H]4C[C@@H]4C[C@H]4CC[C@@H](C(=O)N5CC(n6ccnc6)C5)N4C3=O)cc2c1` [Compound 207], the results for the pIC50 in experiment [1] and in experiment [2] were less than 5.52 and greater than 7.00, respectively.
Regarding `CC(=O)N1C[C@H](NC(=O)[C@@H]2CC[C@@H]3C[C@H]4C[C@H]4C[C@H](NC(=O)c4cc5cc(C(F)(F)P(=O)(OCOC(=O)C(C)(C)C)OCOC(=O)C(C)(C)C)ccc5s4)C(=O)N32)[C@@H](O)C1` [Compound 208, ((((2-(((3S,6S,7aS, 8aR,9aR)-3-(((3S,4S)-1-acetyl-4-hydroxy-pyrrolidin-3-yl)carbamoyl) 5-oxodecahydro-1H-cyclopropa[d]pyrrolo[1,2-a]azocin-6-yl)carbamoyl)benzo[b]thiophen-5-yl)difluoromethyl)phosphoryl)bis(oxy)) bis(methylene) bis(2,2-dimethyl-propanoate)], the pIC50 in experiment [1] is 5.52 to 6.00; in experiment [2] it was greater than 7.00.
With `CC(C)(C)C(=O)OCOP(=O)(OCOC(=O)C(C)(C)C)C(F)(F)c1ccc2sc(C(=O)N[C@H]3C[C@H]4C[C@H]4C[C@H]4CC[C@@H](C(=O)N5CC(c6ccccn6)C5)N4C3=O)cc2c1` [Compound 209, (((difluoro(2-(((3S,6S,7aR, 8aS,9aR)-5-oxo-3-(3-(pyridin-2-yl)azetidine-1-carbonyl)decahydro-1H-cyclopropa[d]pyrrolo[1,2-a]azocin-6-yl)carbamoyl)benzo[b]thiophen-5-yl)methyl)phosphoryl)bis(oxy)) bis(methylene) bis(2,2-dimethyl-propanoate)], the pIC50 is 6.00 to 7.00 in experiment [1] and greater than 7.00 in experiment [2].
`CC(C)(C)C(=O)OCOP(=O)(OCOC(=O)C(C)(C)C)C(F)(F)c1ccc2sc(C(=O)N[C@H]3C[C@@H]4C[C@@H]4C[C@H]4CC[C@@H](C(=O)N5CC6(CN(C(=O)Cc7ccccc7)C6)C5)N4C3=O)cc2c1` [Compound 210, (((difluoro(2-(((3S,6S,7aS, 8aR,9aR)-5-oxo-3-(6-(2-phenyl-acetyl)-2,6-diazaspiro[3.3]heptane-2-carbonyl)decahydro-1H-cyclopropa[d]pyrrolo[1,2-a]azocin-6-yl)carbamoyl)benzo[b]thiophen-5-yl)methyl)phosphoryl)bis(oxy)) bis(methylene) bis(2,2-dimethyl-propanoate)]: the values for the pIC50 in experiment [1] and in experiment [2] were 6.00 to 7.00 and greater than 7.00, respectively.
As to `CC(C)(C)C(=O)OCOP(=O)(OCOC(=O)C(C)(C)C)C(F)(F)c1ccc2sc(C(=O)N[C@H]3C[C@@H]4C[C@@H]4C[C@H]4CC[C@@H](C(=O)N5CCN(C(=O)c6cn[nH]c6)CC5)N4C3=O)cc2c1` [Compound 211, ((((2-(((3S,6S,7aS, 8aR,9aR)-3-(4-(1H-pyrazole-4-carbonyl)piperazine-1-carbonyl)-5-oxodecahydro-1H-cyclopropa[d]pyrrolo[1,2-a]azocin-6-yl)carbamoyl)benzo[b]thiophen-5-yl)difluoromethyl)phosphoryl)bis(oxy)) bis(methylene) bis(2,2-dimethyl-propanoate)], the results for the pIC50 in experiment [1] and in experiment [2] were less than 5.52 and 6.00 to 7.00, respectively.
For the molecule `CC(C)(C)C(=O)OCOP(=O)(OCOC(=O)C(C)(C)C)C(F)(F)c1ccc2sc(C(=O)N[C@H]3C[C@@H]4C[C@@H]4C[C@H]4CC[C@@H](C(=O)N[C@@H]5CCN(c6cccnc6)C5)N4C3=O)cc2c1` [Compound 212, (((difluoro(2-(((3S,6S,7aS, 8aR,9aR)-5-oxo-3-(((R)-1-(pyridin-3-yl)pyrrolidin-3-yl)carbamoyl)decahydro-1H-cyclopropa[d]pyrrolo[1,2-a]azocin-6-yl)carbamoyl)benzo[b]thiophen-5-yl)methyl)phosphoryl)bis(oxy)) bis(methylene) bis(2,2-dimethyl-propanoate)], the figures for the pIC50 in experiment [1] and in experiment [2] were less than 5.52 and greater than 7.00, respectively.
